Measurements taken from patent US11286268B1, “EIF4E-inhibiting compounds and methods” (EFFECTOR THERAPEUTICS, INC., priority 2019, dated 2022).
Read-outs that look alike come from different tables or passages of the source.

Target: recombinant eIF4E (Homo sapiens (Human), UniProt P06730)
Assay: Fluorescence polarization competition assay for eIF4E binding potency
Procedure, shortened: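 Competition of test compound against 20 nM EDA-m^7GDP-ATTO-550 for 75 nM recombinant eIF4E, pre-incubated 5 min, in 20 mM Tris pH 7.5, 100 mM NaCl, 1 mM DTT, 0.02% Tween-20, 1% DMSO. Equilibrated 30 min at room temperature, dark; fluorescence polarization read. IC50 from 8-point, 3-fold dilution series.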

[1] = fluorescence polarization competition, 75 nM recombinant eIF4E, 20 nM EDA-m7GDP-ATTO-550, IC50 class, read-out: elF4E FP
[2] = inhibition of eIF4E/EDA-m7GDP-ATTO-550 binding by 50%, Table 4B calculated values, read-out: IC50
[3] = inhibition of eIF4E/EDA-m7GDP-ATTO-550 binding, calculated IC50 values, Table 4B, read-out: IC50

Chain of recombinant eIF4E (P06730 whole entry): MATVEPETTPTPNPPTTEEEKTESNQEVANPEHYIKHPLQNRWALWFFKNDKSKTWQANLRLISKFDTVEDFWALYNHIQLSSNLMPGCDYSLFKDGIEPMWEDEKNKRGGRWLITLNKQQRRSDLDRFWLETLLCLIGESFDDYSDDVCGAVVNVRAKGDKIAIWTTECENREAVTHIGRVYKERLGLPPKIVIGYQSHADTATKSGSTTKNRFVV

Compound	IC50 [1] [µM]	IC50 [2] [µM]	IC50 [3] [µM]
CC#Cc1nc2c(=O)n(CCOc3ccc(Cl)cc3-c3cc(C)nc4c(C(=O)O)csc34)c(C)nc2cc1C(F)(F)F [compound 784]	< 0.05	0.0137	–
Cc1sc2c(-c3cc(Cl)ccc3OCCn3cnc4cc(C(F)(F)F)c(CN(C)C)c(C#N)c4c3=O)ccnc2c1C(=O)O [compound 641]	< 0.05	0.0333	–
COC(=O)c1sc2c(-c3cc(Cl)ccc3OCCn3c(C)nc4cc(C(F)(F)F)cc(C#N)c4c3=O)ccnc2c1O [compound 2037]	–	–	> 1
Cc1cc(-c2c(F)cc3nc(C)n(CCOc4ccc(Cl)cc4-c4cc(C)nc5c(C(=O)O)csc45)c(=O)c3c2C#N)cc(C)n1 [compound 932]	< 0.05	0.0178	–
Cc1nc2c(N(C)C3CCN(CC(F)(F)F)CC3)ncc(C#N)c2c(=O)n1CCOc1ccc(Cl)cc1-c1ccnc2c(C(=O)O)csc12 [compound 861]	< 0.05	0.0246	–
CCc1cc(-c2cc(Cl)ccc2OCCn2c(C)nc3c(N(C)C)nc(C4CC4)c(C#N)c3c2=O)c2scc(C(=O)O)c2n1 [compound 1199]	< 0.05	–	0.0182
Cc1cc(-c2cc(Cl)ccc2OCCn2c(C)nc3cc4c(c(C#N)c3c2=O)CN(C)CC4)c2scc(C(=O)O)c2n1 [compound 336]	< 0.05	0.0279	–
Cc1cc(-c2cc(Cl)ccc2OCCn2c(C)nc3cc(C(F)(F)F)c4c(c3c2=O)C(=O)CC4)c2scc(C(=O)O)c2n1 [compound 1974]	–	–	0.0513
Cc1nc2cc(Cl)c(Cl)c(C#N)c2c(=O)n1CCOc1ccc(Cl)cc1-c1ccnc2c(C(=O)O)csc12 [compound 207]	< 0.05	0.0213	–
Cc1cc(-c2cc(Cl)ccc2OCCn2c(C)nc3cnc(N4CC(OCC(F)(F)F)C4)c(C#N)c3c2=O)c2scc(C(=O)O)c2n1 [compound 1044]	< 0.05	0.00531	–
Cc1cc(-c2cc(Cl)ccc2OCCn2c(C)nc3cc(C(F)(F)F)c(C4CN(C)C4)c(C#N)c3c2=O)c2scc(C(=O)O)c2n1 [compound 652]	< 0.05	0.00668	–
N#Cc1cc2c(=O)n(CCOc3ccc(Cl)cc3-c3cccc4c(C(=O)O)nccc34)cnc2cn1 [compound 118]	0.05 to 1	0.416	–
Cc1nc2cc(C(F)(F)F)cc(C#N)c2c(=O)n1CCOc1ccc(Cl)cc1-c1ccnc2cc(C(=O)O)sc12 [compound 199]	0.05 to 1	0.143	–
CCN(c1ncc2nc(C)n(CC#Cc3ccc(Cl)cc3-c3ccnc4c(C(=O)O)csc34)c(=O)c2c1C#N)C1CCN([C@H]2C[C@@H](OC(F)(F)F)C2)CC1 [compound 1775]	–	–	0.0321
Cc1nc2cc(C(F)(F)F)c(N3CCN(C)CC3)c(C#N)c2c(=O)n1CCOc1ccc(Cl)cc1-c1ccnc2cnsc12 [compound 1251]	–	–	0.00477
Cc1cc(-c2cc(Cl)ccc2OCCn2c(C)nc3cnc(-c4ccccc4F)c(C#N)c3c2=O)c2scc(C(=O)O)c2n1 [compound 941]	< 0.05	0.02	–
Cc1nc2cc(C(F)(F)F)c(Cl)c(C#N)c2c(=O)n1CCOc1ccc(Cl)cc1-c1ccnc2c(C(=O)O)csc12 [compound 1904]	–	–	0.0369
Cc1nc2cc(C(F)(F)F)c(CN3CCCC3)c(C#N)c2c(=O)n1CCOc1ccc(Cl)cc1-c1ccnc2c(C(=O)O)csc12 [compound 526]	0.05 to 1	0.0641	–
CCc1cccc(-c2c(C(F)(F)F)cc3nc(C)n(CCOc4ccc(Cl)cc4-c4cc(C)nc5c(C(=O)O)csc45)c(=O)c3c2C#N)n1 [compound 776]	< 0.05	0.0365	–
N#Cc1cc2c(=O)n(CCOc3ccc(Cl)cc3-c3cnc(C(=O)O)s3)cnc2cn1 [compound 54]	> 1	2.28	–
Cc1cc(-c2cc(Cl)ccc2OCCn2c(C)nc3cnc(N4CC(OC(F)(F)F)C4)c(C#N)c3c2=O)c2scc(C(=O)O)c2n1 [compound 1042]	< 0.05	0.0265	–
Cc1cc(-c2cc(Cl)ccc2OCCn2c(C)nc3cc(Cl)c(NC(C)(C)C)c(C#N)c3c2=O)c2scc(C(=O)O)c2n1 [compound 956]	< 0.05	0.0165	–
Cc1cc(-c2cc(Cl)ccc2OCCn2c(C)nc3cc4c(c(C#N)c3c2=O)CCN(C)C4)c2scc(C(=O)O)c2n1 [compound 335]	0.05 to 1	–	–
Cc1nc2cc(C(F)(F)F)c(N3CCN(C4CC(F)(F)C4)CC3)c(C#N)c2c(=O)n1CCOc1ccc(Cl)cc1-c1ccnc2c(C(=O)O)csc12 [compound 1292]	–	–	0.0523
Cc1cc(-c2cc(Cl)ccc2OCCn2c(C)nc3cnc(N4CCCC4=O)c(C#N)c3c2=O)c2scc(C(=O)O)c2n1 [compound 977]	< 0.05	0.0144	–
Cc1c(C(F)(F)F)c2cc(C(F)(F)F)cc(C#N)c2c(=O)n1CCOc1ccc(Cl)cc1-c1ccnc2c(C(=O)O)csc12 [compound 268]	< 0.05	0.0341	–

Compound	IC50 [1] [µM]	IC50 [2] [µM]	IC50 [3] [µM]
Cc1nc2cc(OC(F)(F)F)c(C#N)c(C#N)c2c(=O)n1CCOc1ccc(Cl)cc1-c1ccnc2c(C(=O)O)csc12 [compound 543]	< 0.05	0.0382	–
Cc1cc(-c2c(C(F)(F)F)cc3nc(C)n(CCOc4ccc(Cl)cc4-c4cc(C)nc5c(C(=O)O)csc45)c(=O)c3c2C#N)ccn1 [compound 341]	< 0.05	0.045	–
CCc1ccc(-c2c(C(F)(F)F)cc3nc(C)n(CCOc4ccc(Cl)cc4-c4cc(C)nc5c(C(=O)O)csc45)c(=O)c3c2C#N)cn1 [compound 774]	< 0.05	0.00829	–
Cc1nc2cnc(N3CC4(C3)CN(C3C(C)(C)C3(C)C)C4)c(C#N)c2c(=O)n1CCOc1ccc(Cl)cc1-c1ccnc2c(C(=O)O)csc12 [compound 1476]	–	–	0.0162
Cc1cc(-c2cc(Cl)ccc2OCCn2c(C)nc3cc(C(F)(F)F)c(-c4ccccc4CO)nc3c2=O)c2scc(C(=O)O)c2n1 [compound 346]	< 0.05	0.0181	–
Cc1nc2cnc(N(C)C3CCN(C4CC(F)(F)C4)CC3)c(C#N)c2c(=O)n1CC#Cc1ccc(Cl)cc1-c1ccnc2c(C(=O)NS(=O)(=O)C(C)C)csc12 [compound 1808]	–	–	0.0054
Cc1cc(-c2cc(Cl)ccc2OCCn2c(C)nc3cnc(N(C)c4ccccc4)c(C#N)c3c2=O)c2scc(C(=O)O)c2n1 [compound 986]	< 0.05	0.0169	–
N#Cc1cc2c(=O)n(CCOc3ccc(C(F)F)cc3-c3cccc(C(=O)O)c3)cnc2cn1 [compound 126]	> 1	8.36	–
Cc1nc2cnc(N(C)CC3CN(CC(F)F)C3)c(C#N)c2c(=O)n1CC#Cc1ccc(Cl)cc1-c1ccnc2c(C(=O)O)csc12 [compound 1542]	–	–	0.0186
Cc1cc(-c2cc(Cl)ccc2OCCn2c(C)nc3c(=O)n(C)c(-c4ccccc4)c(C#N)c3c2=O)c2scc(C(=O)O)c2n1 [compound 1193]	< 0.05	–	–
Cc1nc2cc(C(F)(F)F)cc(C#N)c2c(=O)n1CCOc1ccc(Cl)cc1-c1cn(C)c(=O)c2c(C(=O)O)csc12 [compound 590]	< 0.05	0.00226	–
Cc1nc2cc(C(F)(F)F)cc(C#N)c2c(=O)n1CCOc1ccc(Cl)cc1-c1cccc2c(C(=O)O)csc12 [compound 402]	0.05 to 1	0.124	–
Cc1cc(-c2cc(Cl)ccc2OCCn2c(C)nc3c(C)nc(-c4c(C)cccc4C)c(C#N)c3c2=O)c2scc(C(=O)O)c2n1 [compound 872]	< 0.05	–	–
Cc1cc(-c2cc(Cl)ccc2OCCn2c(C)nc3c(F)cc(C(F)F)c(C#N)c3c2=O)c2scc(C(=O)NS(=O)(=O)C(F)(F)F)c2n1 [compound 593]	< 0.05	0.0329	–
CCc1sc2c(-c3cc(Cl)ccc3OCCn3c(C)nc4cc(C(F)(F)F)cc(C#N)c4c3=O)ccnc2c1C(=O)O [compound 591]	< 0.05	0.0449	–
Cc1nc(N(C)C2CCN(CC(C)(F)F)CC2)c(C#N)c2c(=O)n(CCOc3ccc(Cl)cc3-c3ccnc4c(C(=O)O)csc34)c(C)nc12 [compound 1562]	–	–	0.0168
Cc1nc2cnc(N(C)C3CCN([C@H]4C[C@@H](OC(F)(F)F)C4)CC3)c(C#N)c2c(=O)n1CC#Cc1ccc(Cl)cc1-c1ccnc2c(C(=O)O)csc12 [1173a]	–	0.0192	–
Cc1nc2cnc(N(C)C3CCN(C4(C)COC4)CC3)c(C#N)c2c(=O)n1CC#Cc1ccc(Cl)cc1-c1ccnc2c(C(=O)O)csc12 [compound 1118]	< 0.05	0.014	–
Cc1nc2cnc(N(C)C3CCN(C4(COC(F)F)CC4)CC3)c(C#N)c2c(=O)n1CC#Cc1ccc(Cl)cc1-c1ccnc2c(C(=O)O)csc12 [compound 1504]	–	–	0.0136
Cc1nc2cnc(N3CCN(C4CC4)CC3(C)C)c(C#N)c2c(=O)n1CCOc1ccc(Cl)cc1-c1ccnc2c(C(=O)O)csc12 [compound 1101]	< 0.05	0.0072	–
Cc1nc2cc(C(F)(F)F)c(N3CCN(C)CC3)nc2c(=O)n1CCOc1ccc(Cl)cc1-c1ccnc2c(C(=O)NS(C)(=O)=O)csc12 [compound 1300]	–	–	0.0181
COCc1cc(-c2cc(Cl)ccc2OCCn2c(C)nc3cc(C(F)(F)F)c(CN4CCN(C)CC4)c(C#N)c3c2=O)c2scc(C(=O)O)c2n1 [compound 489]	< 0.05	–	–
Cc1cc(-c2cc(Cl)ccc2OCCn2c(C)nc3cncc(C#N)c3c2=O)c2scc(C(=O)NS(C)(=O)=O)c2n1 [compound 600]	< 0.05	0.0142	–
Cc1nc2cnc(N(C)C3CCN([C@H]4C[C@@H](OC(F)(F)F)C4)CC3)c(C#N)c2c(=O)n1CC#Cc1ccc(Cl)cc1-c1ccnc2c(C(=O)NS(=O)(=O)c3cccnc3)csc12 [compound 1774]	–	–	0.045
Cc1nc2cc(Cl)c(S(C)(=O)=O)c(C#N)c2c(=O)n1CCOc1ccc(Cl)cc1-c1ccnc2c(C(=O)O)csc12 [compound 493]	0.05 to 1	0.0942	–
COc1sc2c(-c3cc(Cl)ccc3OCCn3c(C)nc4cnc(C5CC5)c(C#N)c4c3=O)ccnc2c1C(=O)O [compound 772]	< 0.05	0.0141	–
